Measurements: BindingDB's records for doi:10.1016/j.bmcl.2008.07.045 (Korea Research Institute of Bioscience and Biotechnology, 2008)

target: Intercellular adhesion molecule 1 (Homo sapiens, UniProt P05362); assay: Inhibition of sICAM1/LFA1 interaction-mediated human THP1 cell adhesion after 1 hr by ELISA
Sequence (P05362 whole entry): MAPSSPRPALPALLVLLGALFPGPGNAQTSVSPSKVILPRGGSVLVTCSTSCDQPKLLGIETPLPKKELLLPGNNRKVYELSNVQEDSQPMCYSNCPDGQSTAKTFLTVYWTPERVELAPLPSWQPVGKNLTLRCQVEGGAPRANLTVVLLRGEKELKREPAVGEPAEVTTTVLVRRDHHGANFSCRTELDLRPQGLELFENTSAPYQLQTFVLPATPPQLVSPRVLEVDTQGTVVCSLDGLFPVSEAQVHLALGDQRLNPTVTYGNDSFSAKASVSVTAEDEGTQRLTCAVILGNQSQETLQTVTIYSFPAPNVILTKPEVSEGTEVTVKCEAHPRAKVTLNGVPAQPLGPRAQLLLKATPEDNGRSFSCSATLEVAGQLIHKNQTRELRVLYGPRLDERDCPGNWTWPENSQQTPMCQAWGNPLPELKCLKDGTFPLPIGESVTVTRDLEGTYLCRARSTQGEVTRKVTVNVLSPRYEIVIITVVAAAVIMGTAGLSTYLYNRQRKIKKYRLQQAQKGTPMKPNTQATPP

Row | IC50 [µM] | Structure (SMILES)
1 | 37.8 | O=C(CCCCCC/C=C/c1ccc2c(c1)OCO2)N1CCCCC1 [PIPERROLEIN B]
2 | 62.6 | CCCCC/C=C/C=C/C(=O)NCC(C)C [CHEBI:69686]
3 | 32.4 | O=C(/C=C/C=C\CC/C=C/c1ccc2c(c1)OCO2)N1CCCCC1

target: not listed separately; assay: Inhibition of sICAM1/LFA1 interaction-mediated human THP1 cell adhesion after 1 hr by ELISA

Row | IC50 [µM] | Structure (SMILES)
4 | > 151 | CC(C)CNC(=O)/C=C/CCCC/C=C/c1ccc2c(c1)OCO2 [RETROFRACTAMIDE C]
5 | 17.6 | O=C(/C=C/C=C/CC/C=C/c1ccc2c(c1)OCO2)N1CCCCC1 [Dehydropipernoline]
6 | 83.9 | CC(C)CNC(=O)/C=C/CCCCCC/C=C/c1ccc2c(c1)OCO2 [PIPERCHABAMIDE D]
7 | 25.7 | O=C(/C=C/CCCC/C=C/c1ccc2c(c1)OCO2)N1CCCCC1 [Pipernonaline]

Row | Structure (SMILES) | IC50 [µM]
8 | CC(C)CNC(=O)/C=C/C=C/CCCCCC/C=C/c1ccc2c(c1)OCO2 [Guineensine] | > 130
